The numbers were not newly measured in US11066448B2, “Zika as a cell penetrating peptide for delivery to the brain” (priority 2018, dated 2021), which cites them from elsewhere.

For series [1] the following is noted: enzymatic hydrolysis, doxorubicin release.
For series [2] the following is noted: human plasma; MMAE linked.

With Phe-Lys, in series [1], the half-life of cleavage is given as 8 min. Besides, the “stability relative to Val-Cit” value in series [2] is given as “substantially less stable”.

In the case of Val-Lys, the half-life of cleavage in series [1] is reported as 9 min.

In the case of valine-citrulline [Val-Cit], the half-life of cleavage in series [1] is reported as 240 min. Besides, the “stability relative to hydrazone linker” value in series [2] is “over 100 times”.
